Key:
Test in all cases: fitness (endpoint OD595 vs no drug) (fraction); higher = more growth
S. aureus Newman = tested on: S. aureus Newman
Summary of the method: (§1)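 Bacterial fitness was scored as optical density at the stationary-phase transition relative to the robust mean of no-drug control wells. Scores are capped at 1. The growth data were OD595 readings every 30 min for 14 h at 37 °C, background-subtracted against the first reading, from 384-well plates inoculated at OD595 0.01 in TSB, LB Lennox or CY.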

S. pneumoniae D39V = tested on: S. pneumoniae D39V
Summary of the method: as §1

S. aureus DSM 20231 = tested on: S. aureus DSM 20231
Summary of the method: as §1

B. subtilis 168 = tested on: B. subtilis 168
Summary of the method: as §1
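Also: OD595 on entry to stationary phase over no-drug wells; at most 1.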

CCC[C@@H]1C[C@@H](C(=O)N[C@@H]([C@H]2O[C@H](SC)[C@H](O)[C@@H](O)[C@H]2O)[C@H](C)Cl)N(C)C1 [Clindamycin] + CO/N=C(\C(=O)N[C@@H]1C(=O)N2C(C(=O)[O-])=C(C[N+]3(C)CCCC3)CS[C@H]12)c1csc(N)n1 [Cefepime]
Settings | fitness
S. aureus DSM 20231, first compound 0.125 µg/mL, partner 0.125 µg/mL | 0.0728
S. aureus DSM 20231, first compound 0.125 µg/mL, partner 0.25 µg/mL | 0.0809
S. aureus DSM 20231, first compound 0.125 µg/mL, partner 0.5 µg/mL | 0.0837
S. aureus Newman, first compound 0.0312 µg/mL, partner 0.125 µg/mL | 0.781
S. aureus Newman, first compound 0.0312 µg/mL, partner 0.25 µg/mL | 0.713
S. aureus Newman, first compound 0.0312 µg/mL, partner 0.5 µg/mL | 0.601
S. aureus Newman, first compound 0.125 µg/mL, partner 0.125 µg/mL | 0.187
S. aureus Newman, first compound 0.125 µg/mL, partner 0.25 µg/mL | 0.158
S. aureus Newman, first compound 0.125 µg/mL, partner 0.5 µg/mL | 0.151
S. pneumoniae D39V, first compound 0.0125 µg/mL, partner 0.0078 µg/mL | 0.809
S. pneumoniae D39V, first compound 0.0125 µg/mL, partner 0.0155 µg/mL | 0.818
S. pneumoniae D39V, first compound 0.0125 µg/mL, partner 0.031 µg/mL | 0.802
S. pneumoniae D39V, first compound 0.015 µg/mL, partner 0.007 µg/mL | 0.914
S. pneumoniae D39V, first compound 0.015 µg/mL, partner 0.014 µg/mL | 0.937
S. pneumoniae D39V, first compound 0.015 µg/mL, partner 0.028 µg/mL | 0.841
S. pneumoniae D39V, first compound 0.025 µg/mL, partner 0.0078 µg/mL | 0.599
S. pneumoniae D39V, first compound 0.025 µg/mL, partner 0.0155 µg/mL | 0.57
S. pneumoniae D39V, first compound 0.025 µg/mL, partner 0.031 µg/mL | 0.523
S. pneumoniae D39V, first compound 0.03 µg/mL, partner 0.007 µg/mL | 0.771
S. pneumoniae D39V, first compound 0.03 µg/mL, partner 0.014 µg/mL | 0.789
S. pneumoniae D39V, first compound 0.03 µg/mL, partner 0.028 µg/mL | 0.696
S. pneumoniae D39V, first compound 0.05 µg/mL, partner 0.0078 µg/mL | 0.264
S. pneumoniae D39V, first compound 0.05 µg/mL, partner 0.0155 µg/mL | 0.255
S. pneumoniae D39V, first compound 0.05 µg/mL, partner 0.031 µg/mL | 0.241
S. pneumoniae D39V, first compound 0.06 µg/mL, partner 0.007 µg/mL | 0.408
S. pneumoniae D39V, first compound 0.06 µg/mL, partner 0.014 µg/mL | 0.411
S. pneumoniae D39V, first compound 0.06 µg/mL, partner 0.028 µg/mL | 0.365

CCC[C@@H]1C[C@@H](C(=O)N[C@@H]([C@H]2O[C@H](SC)[C@H](O)[C@@H](O)[C@H]2O)[C@H](C)Cl)N(C)C1 [Clindamycin] + CO[C@@]12[C@H](COC(N)=O)C3=C(C(=O)C(C)=C(N)C3=O)N1C[C@@H]1N[C@@H]12 [Mitomycin C]
Settings | fitness
S. aureus DSM 20231, first compound 0.0312 µg/mL, partner 0.0312 µg/mL | 0.466
S. aureus DSM 20231, first compound 0.0312 µg/mL, partner 0.0625 µg/mL | 0.35
S. aureus DSM 20231, first compound 0.0625 µg/mL, partner 0.0156 µg/mL | 0.149
S. aureus DSM 20231, first compound 0.0625 µg/mL, partner 0.0312 µg/mL | 0.117
S. aureus DSM 20231, first compound 0.0625 µg/mL, partner 0.0625 µg/mL | 0.103
S. aureus DSM 20231, first compound 0.125 µg/mL, partner 0.0156 µg/mL | 0.0347
S. aureus DSM 20231, first compound 0.125 µg/mL, partner 0.0312 µg/mL | 0.0369
S. aureus DSM 20231, first compound 0.125 µg/mL, partner 0.0625 µg/mL | 0.083
S. aureus Newman, first compound 0.0312 µg/mL, partner 0.0156 µg/mL | 0.537
S. aureus Newman, first compound 0.0312 µg/mL, partner 0.0312 µg/mL | 0.483
S. aureus Newman, first compound 0.0312 µg/mL, partner 0.0625 µg/mL | 0.412
S. aureus Newman, first compound 0.0625 µg/mL, partner 0.0156 µg/mL | 0.421
S. aureus Newman, first compound 0.0625 µg/mL, partner 0.0312 µg/mL | 0.355
S. aureus Newman, first compound 0.0625 µg/mL, partner 0.0625 µg/mL | 0.243
S. aureus Newman, first compound 0.125 µg/mL, partner 0.0156 µg/mL | 0.138
S. aureus Newman, first compound 0.125 µg/mL, partner 0.0312 µg/mL | 0.163
S. aureus Newman, first compound 0.125 µg/mL, partner 0.0625 µg/mL | 0.0658
S. pneumoniae D39V, first compound 0.0125 µg/mL, partner 0.002 µg/mL | 0.651
S. pneumoniae D39V, first compound 0.0125 µg/mL, partner 0.004 µg/mL | 0.593
S. pneumoniae D39V, first compound 0.0125 µg/mL, partner 0.008 µg/mL | 0.495
S. pneumoniae D39V, first compound 0.015 µg/mL, partner 0.001075 µg/mL | 0.912
S. pneumoniae D39V, first compound 0.015 µg/mL, partner 0.00215 µg/mL | 0.889
S. pneumoniae D39V, first compound 0.015 µg/mL, partner 0.0043 µg/mL | 0.752
S. pneumoniae D39V, first compound 0.025 µg/mL, partner 0.002 µg/mL | 0.36
S. pneumoniae D39V, first compound 0.025 µg/mL, partner 0.004 µg/mL | 0.328
S. pneumoniae D39V, first compound 0.025 µg/mL, partner 0.008 µg/mL | 0.322
S. pneumoniae D39V, first compound 0.03 µg/mL, partner 0.001075 µg/mL | 0.708
S. pneumoniae D39V, first compound 0.03 µg/mL, partner 0.00215 µg/mL | 0.689
S. pneumoniae D39V, first compound 0.03 µg/mL, partner 0.0043 µg/mL | 0.57
S. pneumoniae D39V, first compound 0.05 µg/mL, partner 0.002 µg/mL | 0.187
S. pneumoniae D39V, first compound 0.05 µg/mL, partner 0.004 µg/mL | 0.144
S. pneumoniae D39V, first compound 0.05 µg/mL, partner 0.008 µg/mL | 0.155
S. pneumoniae D39V, first compound 0.06 µg/mL, partner 0.001075 µg/mL | 0.453
S. pneumoniae D39V, first compound 0.06 µg/mL, partner 0.00215 µg/mL | 0.396
S. pneumoniae D39V, first compound 0.06 µg/mL, partner 0.0043 µg/mL | 0.306

CCC[C@@H]1C[C@@H](C(=O)N[C@@H]([C@H]2O[C@H](SC)[C@H](O)[C@@H](O)[C@H]2O)[C@H](C)Cl)N(C)C1 [Clindamycin] + N[C@@H]1CONC1=O [Cycloserine D]
fitness
Settings | partner 0.125 µg/mL | partner 0.25 µg/mL | partner 0.375 µg/mL | partner 0.5 µg/mL | partner 0.75 µg/mL | partner 1.5 µg/mL
B. subtilis 168, first compound 0.0625 µg/mL | 0.592 | 0.512 | – | 0.549 | – | –
B. subtilis 168, first compound 0.125 µg/mL | 0.413 | 0.365 | – | 0.363 | – | –
B. subtilis 168, first compound 0.25 µg/mL | 0.396 | 0.348 | – | 0.329 | – | –
S. aureus DSM 20231, first compound 0.0625 µg/mL | – | – | 0.0659 | – | 0.0748 | 0.0881
S. aureus DSM 20231, first compound 0.125 µg/mL | – | – | 0.0216 | – | 0.0398 | 0.0593
S. aureus Newman, first compound 0.0312 µg/mL | – | – | 0.732 | – | 0.735 | 0.746
S. aureus Newman, first compound 0.125 µg/mL | – | – | 0.0953 | – | 0.115 | 0.103

fitness, B. subtilis 168, one replicate
Settings | first compound 0.0039 µg/mL | first compound 0.0078 µg/mL | first compound 0.0156 µg/mL
partner 0.125 µg/mL | 0.985 | 0.927 | 0.879
partner 0.25 µg/mL | 0.974 | 0.859 | 0.796
partner 0.5 µg/mL | ≥ 1 | 0.901 | 0.845

N[C@@H]1CONC1=O [Cycloserine D] + CC1=C\[C@@H](O)CC(=O)Cc2nc(co2)C(=O)N2CCC=C2C(=O)O[C@H](C(C)C)[C@H](C)/C=C/C(=O)NC\C=C\1 [Virginiamycin M1]
fitness
Settings | first compound 0.125 µg/mL | first compound 0.25 µg/mL | first compound 0.375 µg/mL | first compound 0.5 µg/mL | first compound 0.75 µg/mL | first compound 1.5 µg/mL
B. subtilis 168, partner 0.0625 µg/mL | 0.967 | 0.971 | – | 0.852 | – | –
B. subtilis 168, partner 0.125 µg/mL | 0.922 | 0.909 | – | 0.916 | – | –
B. subtilis 168, partner 0.25 µg/mL | 0.921 | 0.906 | – | ≥ 1 | – | –
S. aureus DSM 20231, partner 0.0625 µg/mL | – | – | ≥ 1 | – | ≥ 1 | 0.955
S. aureus DSM 20231, partner 0.125 µg/mL | – | – | ≥ 1 | – | ≥ 1 | ≥ 1
S. aureus DSM 20231, partner 0.25 µg/mL | – | – | 0.999 | – | 1 | ≥ 1
S. aureus Newman, partner 0.0625 µg/mL | – | – | ≥ 1 | – | 0.969 | 0.985
S. aureus Newman, partner 0.125 µg/mL | – | – | ≥ 1 | – | 0.98 | 0.991
S. aureus Newman, partner 0.25 µg/mL | – | – | ≥ 1 | – | 1 | 0.981

fitness, one replicate
Settings | first compound 0.375 µg/mL | first compound 0.75 µg/mL | first compound 1.5 µg/mL
S. aureus DSM 20231, partner 0.5 µg/mL | 0.996 | 0.99 | 0.999
S. aureus DSM 20231, partner 1 µg/mL | 0.958 | 0.984 | 0.908
S. aureus Newman, partner 0.5 µg/mL | 0.914 | 0.934 | ≥ 1
S. aureus Newman, partner 1 µg/mL | ≥ 1 | 0.967 | 0.882
S. aureus Newman, partner 2 µg/mL | 0.888 | 0.931 | 0.769

N[C@@H]1CONC1=O [Cycloserine D] + CCCCCCCCCC(=O)N[C@@H]1[C@H]([C@@H]([C@H](O[C@H]1OC2=C3C=C4C=C2OC5=C(C=C(C=C5)[C@H]([C@H]6C(=O)N[C@@H](C7=C(C(=CC(=C7)O)OC8[C@H]([C@H]([C@@H]([C@H](O8)CO)O)O)O)C9=C(C=CC(=C9)[C@H](C(=O)N6)NC(=O)[C@@H]4NC(=O)[C@@H]1C2=CC(=CC(=C2)OC2=C(C=CC(=C2)[C@H](C(=O)N[C@H](CC2=CC(=C(O3)C=C2)Cl)C(=O)N1)N)O)O)O)C(=O)O)O[C@H]1[C@@H]([C@H]([C@@H]([C@H](O1)CO)O)O)NC(=O)C)Cl)CO)O)O [Teicoplanin]
fitness, main component drawn
Settings | first compound 0.375 µg/mL | first compound 0.75 µg/mL | first compound 1.5 µg/mL
S. aureus DSM 20231, partner 0.1562 µg/mL | ≥ 1 | ≥ 1 | 0.989
S. aureus DSM 20231, partner 0.3125 µg/mL | ≥ 1 | ≥ 1 | ≥ 1
S. aureus DSM 20231, partner 0.625 µg/mL | ≥ 1 | ≥ 1 | ≥ 1
S. aureus Newman, partner 0.1562 µg/mL | ≥ 1 | ≥ 1 | 0.975
S. aureus Newman, partner 0.3125 µg/mL | ≥ 1 | ≥ 1 | ≥ 1
S. aureus Newman, partner 0.625 µg/mL | 0.865 | 0.779 | 0.77

fitness, S. aureus Newman, one replicate, main component drawn
Settings | first compound 0.375 µg/mL | first compound 0.75 µg/mL | first compound 1.5 µg/mL
partner 0.62 µg/mL | 0.831 | 0.783 | 0.894
partner 1.24 µg/mL | 0.745 | 0.694 | 0.743
partner 2.48 µg/mL | 0.368 | 0.341 | 0.377

From the supplement of paper PMC10627819
